Publication PMC6952399, “Structures of lipoprotein signal peptidase II from Staphylococcus aureus complexed with antibiotics globomycin and myxovirescin” (Nature Communications, 2020)
“And” between values parts separate entries of the source, which are not always exact repeats. Equal entries are not always repeated.

Molecular target: T1, LspPae (lipoprotein signal peptidase II from Pseudomonas aeruginosa) (Pseudomonas aeruginosa, UniProt Q9HVM5)
T1 construct: made in house
T1 sequence (Q9HVM5 1-169): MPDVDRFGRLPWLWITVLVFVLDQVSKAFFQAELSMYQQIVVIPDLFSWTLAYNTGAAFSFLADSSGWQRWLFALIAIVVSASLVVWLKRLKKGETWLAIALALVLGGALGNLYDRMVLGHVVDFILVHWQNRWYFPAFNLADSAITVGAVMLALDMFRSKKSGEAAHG
Assay: FRET lipopeptide peptidase assay, LspPae
Type: biochemical
Details: for Fluorescence (RFU): FRET substrate + LspA + Globomycin; for Rate (RFU/min) / Normalised rate (Vi/V0): replicates 1 and 2; for Ki: estimated Ki’ (apparent inhibition constant)
Procedure: FRET activity assays. A FRET based assay was developed using a labelled lipopeptide substrate (Supplementary Methods, Supplementary Fig. 3b) to directly monitor the protease activity of LspA. The optimised LspMrs assay buffer included 100 mM Tris/HCl pH 7.8, 150 mM NaCl and 0.09%(w/v) DDM. The corresponding optimized buffer for LspPae included 100 mM MES/NaOH pH 5.6, 150 mM NaCl and 0.05%(w/v) LMNG. All assays were performed at 37 °C.
Reaction mixtures were prepared by vortexing (Clifton, cyclone CM-1) for 2 s and incubated at 37 °C, 800 rpm for 10 to 30 min. […] For dose-response assays, the final DMSO concentration in all reactions was 10%(v/v). Reaction mixtures were pipetted into wells of a 96- (Thermo Scientific) or a 384-well plate (4titude®) and incubated for 10 min at 37 °C in a SpectraMax M3 or a SpectraMax M5e plate reader (Molecular devices) prior to starting the assay. Assays were initiated by adding enzyme to a final concentration in the range 10–300 nM. Total reaction mixture volume was 50 μL. Reactions were monitored by fluorescence (Ex/Em, 320 nm/420 nm) for 30 to 60 min at 37 °C. Initial rates were calculated from the fluorescence intensity versus time progress curves (Supplementary Figs. 5 and 6). Occasionally, lag periods in the progress curves were observed (Supplementary Discussion). In such cases, initial rates were calculated after the lag period had passed (typically 1–5 min) and a steady rate had been established. Dose-response plots to determine IC50 values were generated using Prism® 5 software from GraphPad.
It was possible to convert units of fluorescence change into moles of substrate consumed or products formed because pure products of LspA action on Abz-LALAGC*SS-nY-NH2 had been synthesized and were available. These were used to create a standard curve of fluorescence versus moles of the two products in equimolar amounts and to calculate specific activity values. […]
One consequence of LspMrs having a relatively low specific activity is that, in order to get a reliable signal in activity assays, it was necessary to raise enzyme concentration. For kinetic measurements generally, it is desirable to use an enzyme concentration that is much lower than that of the substrate. In this situation, the usual assumption that added and free substrate concentrations are equal is valid. At high enzyme concentrations [E] therefore, and especially in the case of tight ligand binding where the inhibition constant, Ki, is small, a measured IC50 is limited to [E]/2 4–6. In such circumstances, a meaningful IC50 or Ki can only be obtained with considerable effort. With a few exceptions in the current study, this situation prevailed with both LspA orthologs where IC50 values came close to [E]/2 (Table 1 and Supplementary Table 3, Supplementary Fig. 6). […]
Inhibition of LspA from E. coli by globomycin has been described as non-competitive7. The evidence provided in support o f this conclusion included an insensitivity of IC 50 to substrate concentration and the fact that the Vmax but not the K m changed with globomycin concentration. It was of interest to determine if a similar mode of inhibition applied to LspPae and LspMrs. From published work7–9 and from FRET-based kinetics measurements reported here, we know that globomycin binds with high affinity (Supplementary Fig. 6). Tight binding means that a more in-depth analysis must be carried out in order to identify inhibition type. For such analysis, it is important to know active enzyme concentration accurately. Fortunately, it was possible to use the property of tight inhibitor binding to measure the concentration of active enzyme ( Supplementary Fig. 18a). In the case of LspPae, the estimated value and the concentration determined spectroscopically agreed remarkably well. Parenthetically we note that knowing active LspPae concentration accurately enabled a characterization of the myxovirescin sample used in this study. Myxovirescin also binds tightly to LspA (Supplementary Fig. 6). […]

[1] = Suppl. Fig. 18a, [Globomycin] 0.02 M
[2] = Suppl. Fig. 18a, [Globomycin] 0.08 M
[3] = Suppl. Fig. 18a, [Globomycin] 0.1 M
[4] = Suppl. Fig. 18a, [Globomycin] 0.12 M
[5] = Suppl. Fig. 18a, [Globomycin] 0.15 M
[6] = Suppl. Fig. 18a, [Globomycin] 0.25 M

## CCCCCC[C@H]1OC(=O)CNC(=O)[C@H]([C@H](C)O)NC(=O)[C@H](CO)NC(=O)[C@H]([C@H](C)CC)NC(=O)[C@H](CC(C)C)N(C)C(=O)[C@@H]1C [globomycin]
5-fold molar excess of antibiotic added 20 to 30 min after start of reaction
  inhibitor on-rates: fast
Time 26.5 min
  Fluorescence (RFU): 472.821 RFU
Time 27 min
  Fluorescence (RFU): 466.895 RFU
Time 27.5 min
  Fluorescence (RFU): 470.521 RFU
Time 28 min
  Fluorescence (RFU): 460.426 RFU
Time 28.5 min
  Fluorescence (RFU): 463.196 RFU
Time 29 min
  Fluorescence (RFU): 462.392 RFU
Time 29.5 min
  Fluorescence (RFU): 469.501 RFU
Time 30 min
  Fluorescence (RFU): 460.374 RFU
Time 30.5 min
  Fluorescence (RFU): 459.928 RFU
Time 31 min
  Fluorescence (RFU): 456.673 RFU
Time 31.5 min
  Fluorescence (RFU): 461.288 RFU
Time 32 min
  Fluorescence (RFU): 457.637 RFU
Time 32.5 min
  Fluorescence (RFU): 459.756 RFU
Time 33 min
  Fluorescence (RFU): 461.040 RFU
Time 33.5 min
  Fluorescence (RFU): 455.548 RFU
Time 34 min
  Fluorescence (RFU): 459.251 RFU
Time 34.5 min
  Fluorescence (RFU): 461.912 RFU
Time 35 min
  Fluorescence (RFU): 462.029 RFU
Time 35.5 min
  Fluorescence (RFU): 459.871 RFU
Time 36 min
  Fluorescence (RFU): 456.705 RFU
Time 36.5 min
  Fluorescence (RFU): 457.128 RFU
Time 37 min
  Fluorescence (RFU): 457.399 RFU
Time 37.5 min
  Fluorescence (RFU): 460.693 RFU
Time 38 min
  Fluorescence (RFU): 454.401 RFU
Time 38.5 min
  Fluorescence (RFU): 457.430 RFU
Time 39 min
  Fluorescence (RFU): 456.060 RFU
Time 39.5 min
  Fluorescence (RFU): 454.659 RFU
Time 40 min
  Fluorescence (RFU): 457.707 RFU
Time 40.5 min
  Fluorescence (RFU): 450.482 RFU
Time 41 min
  Fluorescence (RFU): 454.135 RFU
Time 41.5 min
  Fluorescence (RFU): 449.262 RFU
Time 42 min
  Fluorescence (RFU): 454.556 RFU
Time 42.5 min
  Fluorescence (RFU): 450.049 RFU
Time 43 min
  Fluorescence (RFU): 449.698 RFU
Time 43.5 min
  Fluorescence (RFU): 456.047 RFU
Time 44 min
  Fluorescence (RFU): 454.046 RFU
Time 44.5 min
  Fluorescence (RFU): 452.003 RFU
Time 45 min
  Fluorescence (RFU): 447.269 RFU
Time 45.5 min
  Fluorescence (RFU): 454.250 RFU
Time 46 min
  Fluorescence (RFU): 454.835 RFU
Time 46.5 min
  Fluorescence (RFU): 452.245 RFU
Time 47 min
  Fluorescence (RFU): 453.938 RFU
Time 47.5 min
  Fluorescence (RFU): 452.432 RFU
Time 48 min
  Fluorescence (RFU): 453.748 RFU
Time 48.5 min
  Fluorescence (RFU): 446.264 RFU
Time 49 min
  Fluorescence (RFU): 454.134 RFU
Time 49.5 min
  Fluorescence (RFU): 458.300 RFU
Time 50 min
  Fluorescence (RFU): 453.740 RFU
Time 50.5 min
  Fluorescence (RFU): 458.019 RFU
Time 51 min
  Fluorescence (RFU): 452.119 RFU
IC50, 20 nM LspPae, substrate 2.5 µM
  IC50: 5.32 nM and 7.73 nM
IC50, 20 nM LspPae, substrate 5 µM
  IC50: 6.43 nM and 11.1 nM
IC50, 20 nM LspPae, substrate 7.5 µM
  IC50: 6.63 nM and 10.1 nM
IC50, 20 nM LspPae, substrate 10 µM
  IC50: 7.18 nM and 9.58 nM
IC50, 20 nM LspPae, substrate 20 µM
  IC50: 5.81 nM and 8.79 nM
IC50, 20 nM LspPae, substrate 30 µM
  IC50: 5.73 nM and 9.79 nM
IC50, FRET, 0.1 µM enzyme, 30 µM substrate, initial rates
  IC50: 57 nM
IC50, LspPae concentration 10 nM
  IC50: 5.5 nM and 7.7 nM
IC50, LspPae concentration 20 nM
  IC50: 10.6 nM and 17.6 nM
IC50, LspPae concentration 40 nM
  IC50: 22.6 nM and 26.4 nM
IC50, LspPae concentration 60 nM
  IC50: 27.8 nM and 39 nM
IC50, LspPae concentration 80 nM
  IC50: 37.9 nM and 55.3 nM
IC50, LspPae concentration 100 nM
  IC50: 52.6 nM and 61.3 nM
LspPae + Globomycin, log [globomycin] (µM) -0.60
  Rate (RFU/min): 0.6 RFU/min and 0.7 RFU/min
LspPae + Globomycin, log [globomycin] (µM) -0.82
  Rate (RFU/min): 0.856 RFU/min and 1.1 RFU/min
LspPae + Globomycin, log [globomycin] (µM) -0.92
  Rate (RFU/min): 0.9 RFU/min and 0.95 RFU/min
LspPae + Globomycin, log [globomycin] (µM) -1.00
  Rate (RFU/min): 4.1 RFU/min and 3.2 RFU/min
LspPae + Globomycin, log [globomycin] (µM) -1.10
  Rate (RFU/min): 12.3 RFU/min and 11.9 RFU/min
LspPae + Globomycin, log [globomycin] (µM) -1.30
  Rate (RFU/min): 31.7 RFU/min and 30.1 RFU/min
LspPae + Globomycin, log [globomycin] (µM) -1.70
  Rate (RFU/min): 42.7 RFU/min
[1]
  Normalised rate (Vi/V0): 0.8723 and 0.8656
  Rate (RFU/min): 40.92 RFU/min and 41.48 RFU/min
Suppl. Fig. 18a, [Globomycin] 0.05 M
  Normalised rate (Vi/V0): 0.6284 and 0.6375
[2]
  Normalised rate (Vi/V0): 0.2526 and 0.2533
  Rate (RFU/min): 11.85 RFU/min and 12.14 RFU/min
[3]
  Normalised rate (Vi/V0): 0.07205 and 0.07513
  Rate (RFU/min): 3.38 RFU/min and 3.6 RFU/min
[4]
  Normalised rate (Vi/V0): 0.01684 and 0.01523
  Rate (RFU/min): 0.79 RFU/min and 0.73 RFU/min
[5]
  Normalised rate (Vi/V0): 0.0162 and 0.00793
  Rate (RFU/min): 0.76 RFU/min and 0.38 RFU/min
[6]
  Normalised rate (Vi/V0): 0.02132 and 0.008139
  Rate (RFU/min): 1 RFU/min and 0.39 RFU/min
Suppl. Fig. 18a
  Rate (RFU/min): 29.48 RFU/min and 30.55 RFU/min
Average IC50, 20 nM LspPae, substrate 2.5 or 5 to 30 µM
  IC50: ~10 nM
Morrison analysis, 30 µM substrate, 0.1 µM LspPae
  Ki: 0.74 ± 0.41 nM
From dependence of IC50 on enzyme concentration, IC50 = Ki’ + [E]/2
  Ki: 1.96 ± 3 nM
